Data set [1] concerns HCV (recombination virus strain J6/JFH/JC). Description: Anti-HCV activity in Huh7.5 cells, intracellular HCV RNA by real-time RT-PCR. It counts as cell-based, hepatitis C virus (HCV). The settings on record: for EC50: anti-HCV activity, 72 h, HCV RNA by RT-PCR. How it is done: (§1) All of the synthesized compounds were examined for their anti-HCV activity and cytotoxicity in Huh 7.5 cells using specific real-time RT-PCR assay, as described in our previous publication. Anti-HCV activity was evaluated by measuring both EC50 (for anti-HCV activity) and CC50 (for cytotoxicity) values. As a key indication, the selectivity index (SI) was calculated as a ratio of CC50 to EC50. Anti-HCV activity of the study compound was estimated by combining its EC50 value with SI.
Huh7.5 cells were seeded into 96-well or 6-well plates (Costar) at a density of 3×10^4 cells/cm^2. After 24 h incubation, the cells were infected with HCV viral stock (recombination virus strain J6/JFH/JC, 45 IU/cell) and simultaneously treated with the test compounds at various concentrations.
(§2) Concentrations or solvent as the control. The culture medium was removed after 72 h incubation, the intracellular total RNA (in 96-well plates) was extracted with RNeasy Mini Kit (Qiagen), and total intracellular proteins (in 6-well plates) were extracted with Cyto-Buster Protein Extraction Reagent added with 1 mM protease inhibitor cocktail. The intracellular HCV RNA was quantified with a real time one-step reverse-transcription polymerase chain reaction (RT-PCR). HCV core protein was detected with western blot (see below).
(Real-time PCR tracks product formation cycle by cycle.)

The next data set concerns Huh7.5 cells. Nature of the data set: Cytotoxicity assay (MTT) in Huh7.5 cells. It counts as cell-based, Human. How it is done:
as §1
Huh7.5 cells were seeded into 96-well plates (Costar) at a density of 3×10^4 cells/cm^2. After 24 h incubation. Fresh culture medium containing test compounds at various concentrations were added. 72 h later, Cytotoxicity was evaluated with 3-(4,5-Dimethylthiazol-2-yl)-2,5-diphenyltetrazolium bromide (MTT).

The subject of a further data set is HCV NS3. Nature of the data set: Intracellular HCV NS3 protein level in infected Huh7.5 cells (Western blot). It counts as cell-based, hepatitis C virus (HCV). Background: In western blotting, separated proteins are transferred to a membrane and probed.
The subject of another data set is Hsc70. Nature of the data set: Hsc70 protein expression in Huh7.5 cells (Western blot). It counts as cell-based, Human. The settings on record: Huh7.5 cells, 31.25, 62.5, 125 and 250 µg/mL, 72 h. The method, then:
as §2
The extracted total protein were denatured by adding 5× loading buffer (250 mM Tris-HCl, pH 6.8, 5% dithiothreitol, 10% SDS, 0.5% bromophenol blue, 50% glycerol), followed by boiling for 10 min. Proteins were analyzed with SDS-PAGE, then transfered onto nitrocellulose membranes by electroblotter. The membranes were blocked in 5% nonfat dry milk in TBS-T solusion (20 mM Tris, 150 mM NaCl, 0.1% Tween-20) for 1 h, and washed three times for 10 min each in the TBS-T. Membrane samples were probed with monoclonal antibody specific for protein of HCV core or Hsc70. As a control, monoclonal antibody to actin was used. […] Protein was detected using Immbilon Western Chemiluminescent HRP Substrate (Millipore Inc.) with Alpha Innotech Focus and Image Acquisition.

Another data set concerns the target T1, HCV NS3/4A protease (Hepatitis C virus genotype 2a, UniProt Q99IB8).
T1 construct: HCV NS3/4A protease activity (Michaelis constant Km = 0.60 µM) in the lysates; endogenous in cells; host or cells: lysates
It counts as biochemical. To be noted: 250 µg/mL, in the lysates.

The nature of data set [2]: Single dose toxicity test in mice. The settings on record: for effect on body weight: i.g single dose 250, 500 or 1000 mg/kg (data not shown); for mortality: i.g single dose 250, 500 or 1000 mg/kg, 7 days; for LD50: oral (i.g) single dose, monitored 7 days. The method, then: Single dose toxicity tests for 7c and 7m were carried out in mice as well. After 7c or 7m was given by intragastric administration (i.g) at a dose of 250, 500 or 1000 mg/kg, the mice were closely monitored for 7 days.
Animals were purchased from the Institute of Laboratory Animal Sciences, Chinese Academy of Medical Sciences and Peking Union Medical College, Beijing, China. All experimental procedures were approved by Biomedical Ethics Committee of Chinese Academy of Medical Sciences of animal use and protection. The mice were cared according to the institutional guidelines of the Chinese Academy of Medical Sciences. Male and female KunMing mice with weight of 22.0±1.0 g were fed with regular chow and housed in an air-conditioned room. The mice were randomly divided into five groups with 10 mice each (five male plus five female). The each group of mice were administrated orally 7c and 7m at 0 (saline as control), 500 or 1000 mg/kg, respectively. The test compounds were given in a single-dosing. Body weight as well as survival was closely monitored.

The subject of the next data set is HCV. To be noted: Huh7.5 cells. The text has this:
To further confirm the mode of action for the activity against HCV, down-regulation of Hsc70 expression by 7c was also examined by Western Blot.

Data set [3] in a line: Oral pharmacokinetics in male ICR mice. The settings on record: for MRT / t1/2 / AUC 0−t / Cmax / Tmax: oral (ig) 25 mg/kg; for Cmax / Tmax: plasma.
Method: The study compounds were given to male ICR mice via oral (ig, 25 mg/kg) route.
Male male ICR mice (20–40 g) were obtained from SLAC Laboratory Animal Inc. (Shanghai, China). Three male ICR mice were used in each study. Each of them was dosed with a tested compound at 25 mg/kg via oral administration. Nine blood samples were collected at 0, 0.25, 0.50, 1.0, 2.0, 4.0, 6.0 and 24 h and were immediately centrifuged to separate the plasma fractions. The separated plasma samples were stored at –20°C for analysis. Concentration-versus-time profiles were obtained for each analyte, and standard non-compartmental analysis was performed on the data using WinNonlin software, version 5.3, to recover the AUC and other non-compartmental parameters.
[4] abbreviates: cytotoxicity, Huh7.5 cells, MTT, 72 h, read-out: CC50.

Each structure is given as a SMILES string. Entries after “also recorded” stand apart in the source; their conditions may differ. Read-outs that look alike come from different tables or passages of the source.

T1 sequence (Q99IB8 1662-1715): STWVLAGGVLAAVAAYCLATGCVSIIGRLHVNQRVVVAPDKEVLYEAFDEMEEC
T1 sequence (Q99IB8 1031-1661): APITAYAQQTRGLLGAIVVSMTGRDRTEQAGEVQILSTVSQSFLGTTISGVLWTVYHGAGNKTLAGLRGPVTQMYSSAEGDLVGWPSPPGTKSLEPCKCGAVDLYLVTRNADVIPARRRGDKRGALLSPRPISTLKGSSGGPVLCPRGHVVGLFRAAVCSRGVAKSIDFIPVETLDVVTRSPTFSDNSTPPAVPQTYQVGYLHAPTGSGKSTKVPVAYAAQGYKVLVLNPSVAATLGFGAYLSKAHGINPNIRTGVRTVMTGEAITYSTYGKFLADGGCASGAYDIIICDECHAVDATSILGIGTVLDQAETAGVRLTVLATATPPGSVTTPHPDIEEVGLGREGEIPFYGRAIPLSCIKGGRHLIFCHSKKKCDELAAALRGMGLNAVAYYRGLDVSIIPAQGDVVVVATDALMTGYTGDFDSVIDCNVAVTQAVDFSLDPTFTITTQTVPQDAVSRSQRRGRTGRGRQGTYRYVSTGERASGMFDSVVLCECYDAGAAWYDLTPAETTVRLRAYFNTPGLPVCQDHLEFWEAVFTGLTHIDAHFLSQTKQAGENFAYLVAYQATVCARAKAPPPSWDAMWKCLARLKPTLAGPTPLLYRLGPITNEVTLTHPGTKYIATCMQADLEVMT

For orientation: EC50 means the concentration needed to bring the measured effect to its halfway point. For orientation: CC50 means the concentration at which the toxic effect on the cells reaches its halfway point. For orientation: LD50 means the dose at which mortality reaches 50%. High values mean a less toxic substance, low ones a more toxic substance. As a reminder, the MRT is the average time that molecules of a dose stay in the body. Broadly, the Cmax is the peak of the concentration-time curve. Usually Tmax stands for the time at which the peak concentration occurs. Regarding `Cc1ccc(CN2CC3CCCN4CCCC(C2CCCC(=O)O)C34)cc1` (stereo not shown) [Compound 7c, 12-N-4-Methylbenzyl matrinic acid], in data set [1], the “improvement in anti-HCV activity as compared to 1” value is given as 2 fold and the EC50 was 51.1 µM. Besides, in the data set with Huh7.5 cells (setting [4]), the CC50 was over 2700 µM. Further, in the data set with HCV NS3 (Huh7.5 cells, 62.5 µg/mL), the “HCV NS3 level” value is “significantly reduced”. Further, in the data set on HCV NS3 (Huh7.5 cells, 31.25, 62.5, 125 and 250 µg/mL, 72 h), the “intracellular HCV-NS3 protein” value is reported as “decreased dose-dependently”. Also, the Hsc70 protein expression result in the data set with Hsc70 was “afforded activity in down-regulating Hsc70 protein expression; also recorded: decreased dose-dependently”. In addition, the “HCV NS3/4A protease activity after treatment” value on HCV NS3/4A protease was “not altered”. In addition, in data set [2], the “effect on body weight” value is given as “no effect”, the mortality result is listed as “No mouse died” and the LD50 is on record as over 1000 mg/kg. Besides, in the data set with HCV, the “therapeutic efficacy before, at and after infection” value is reported as “anti-HCV pattern close to that of 7m”. Besides, in data set [3], the MRT came out at 1.68 h, the t1/2 was determined as 1.5 h, the Cmax turned out to be 13.2 µM and the Tmax worked out at 0.25 h. Further, in data set [3] (0 to 24 h), the “AUC 0−t” value turned out to be 13.4 µM·h.

For the molecule `C=Cc1ccc(CN2C[C@@H]3CCCN4CCC[C@@H]([C@H]34)[C@H]2CCCC(=O)O)cc1` [Compound 7m, 12-N-4-Vinylbenzyl matrinic acid], in data set [1], the “SI (selectivity index, CC50/EC50)” value is 39.2 and the EC50 stood at 4.7 µM. In addition, in the data set with Huh7.5 cells (setting [4]), the CC50 was determined as 184 µM. The “HCV NS3/4A protease activity after treatment” value at HCV NS3/4A protease is “not altered”. In addition, in data set [2], the “effect on body weight” value was “no effect”, the mortality entry is recorded as “No mouse died” and the LD50 result is given as “over 1000 mg/kg”. The “therapeutic efficacy before, at and after infection” value in the data set on HCV is “effective before, at and after HCV infection”. In addition, the “Cmax relative to that of 7c” value in data set [3] (oral 25 mg/kg) is recorded as 1.8 fold. Further, in data set [3] (oral 25 mg/kg, 0 to 24 h), the “AUC relative to that of 7c” value was “approximately 2 fold”. In addition, in data set [3], the MRT worked out at 1.65 h, the t1/2 turned out to be 2.01 h, the Cmax stood at 23.2 µM and the Tmax came to 0.5 h. In addition, in data set [3] (0 to 24 h), the “AUC 0−t” value is 25.9 µM·h.

In the case of `Cc1cccc(CN2CC3CCCN4CCCC(C2CCCC(=O)O)C34)c1` (stereo not shown) [Compound 12b, 12-N-3-Methylbenzyl sophoridinic acid], in data set [1], the “SI (selectivity index, CC50/EC50)” value is 2.9 and the EC50 came out at 453 µM. The CC50 in the data set on Huh7.5 cells worked out at 1320 µM.

With `Cc1ccc(CN2CC3CCCN4CCCC(C2CCCC(=O)O)C34)cc1` (stereo not shown) [Compound 12c, 12-N-4-Methylbenzyl sophoridinic acid], in data set [1], the “SI (selectivity index, CC50/EC50)” value amounted to 4.4 and the EC50 was determined as 503 µM. In addition, the CC50 in the data set on Huh7.5 cells is 2200 µM.

Take `O=C(O)CCCC1C2CCCN3CCCC(CN1Cc1ccccc1F)C23` (stereo not shown) [Compound 12d, 12-N-2-Flurobenzyl sophoridinic acid]: in data set [1], the “SI (selectivity index, CC50/EC50)” value is on record as under 1.7 and the EC50 is over 890 µM. The half-maximal cytotoxic concentration (CC50) with Huh7.5 cells stood at 1550 µM.

As for `O=C(O)CCCC1C2CCCN3CCCC(CN1Cc1ccc(F)cc1)C23` (stereo not shown) [Compound 12e, 12-N-4-Flurobenzyl sophoridinic acid], in data set [1], the “SI (selectivity index, CC50/EC50)” value worked out at 10.4 and the concentration for a half-maximal effect (EC50) is 108 µM. Besides, the CC50 in the data set with Huh7.5 cells stood at 1120 µM.

`O=C(O)CCCC1C2CCCN3CCCC(CN1Cc1ccc(OC(F)(F)F)cc1)C23` (stereo not shown) [Compound 12f, 12-N-4-Trifluoromethoxybenzyl sophoridinic acid]: in data set [1], the “SI (selectivity index, CC50/EC50)” value is on record as 12.7 and the EC50 came out at 11.1 µM. The midpoint of cytotoxicity in the data set on Huh7.5 cells, the CC50, lay at 141 µM.
